Measurements: ChEMBL document CHEMBL1201862, “PubChem BioAssay data set” (2004)
“And” between values parts separate entries of the source, which are not always exact repeats. Identical values can stand only once.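 48-hour exposure; five concentrations; linearly interpolated endpoints. GI50 is the concentration that inhibits growth by half.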 The source made the active and inactive calls. Cut-off read from the data, not from the text of the source: active = GI50 up to about 1.1 µM and inactive = higher.

What was measured:
Assay in all cases: NCI anticancer screen, dose series, 48 h
[1] = system: HOP-92
[2] = system: UACC-257
[3] = system: SNB-75
[4] = system: RXF 393
[5] = system: TK-10
[6] = system: IGROV-1
[7] = system: OVCAR-3
[8] = system: OVCAR-5
[9] = system: MCF7
[10] = system: HT-29
[11] = system: SR
[12] = system: PC-3
[13] = system: Malme-3M
[14] = system: T47D
[15] = system: HL-60
[16] = system: 786-0
[17] = system: HCT-15
[18] = system: SNB-19
[19] = system: U-251
[20] = system: NCI-H460
[21] = system: SW-620
[22] = system: COLO 205
[23] = system: MOLT-4
[24] = system: A498
[25] = system: CCRF-CEM
[26] = system: SK-MEL-28
[27] = system: RPMI-8226
[28] = system: MDA-N
[29] = system: K562
[30] = system: NCI-H23
[31] = system: SF-268
[32] = system: EKVX
[33] = system: SK-MEL-5
[34] = system: MDA-MB-231
[35] = system: OVCAR-8
[36] = system: HCC 2998
[37] = system: A549
[38] = system: CAKI-1
[39] = system: OVCAR-4
[40] = system: DU-145
[41] = system: SF-539
[42] = system: KM12
[43] = system: HOP-62
[44] = system: M14
[45] = system: UACC-62
[46] = system: SF-295
[47] = system: HCT-116
[48] = system: NCI/ADR-RES
[49] = system: UO-31

## COC(=O)/C=C/c1cc(OC)c2c(c1)C(C(=O)OC)C(c1ccc(OC)c(OC)c1)O2 (stereo not given)
[1]
  GI50: 55.8 µM (inactive) and > 88.3 µM (inactive)
[2]
  GI50: > 100 µM (inactive)
[3]
  GI50: 1.95 µM (inactive)
[4]
  GI50: 4.94 µM (inactive)
[5]
  GI50: > 100 µM (inactive)
[6]
  GI50: 2.27 µM (inactive)

## CC(=O)c1ccc(N2CCN(C3=C(Cl)C(=O)c4c(O)ccc(O)c4C3=O)CC2)cc1
[1]
  GI50: 2.11 µM (inactive)
[7]
  GI50: 5.19 µM (inactive)
[8]
  GI50: 18.9 µM (inactive)
[9]
  GI50: 1.49 µM (inactive)
[2]
  GI50: 7.6 µM (inactive)
[10]
  GI50: 2.12 µM (inactive)
[11]
  GI50: 2 µM (inactive)
[12]
  GI50: 5.64 µM (inactive)
[13]
  GI50: 11.4 µM (inactive)
[14]
  GI50: 2.91 µM (inactive)
[15]
  GI50: 0.271 µM (active)
[16]
  GI50: 14.2 µM (inactive)
[17]
  GI50: 8.79 µM
[18]
  GI50: 20.7 µM (inactive)
[19]
  GI50: 3.4 µM (inactive)
[20]
  GI50: 16.8 µM (inactive)
[21]
  GI50: 3.02 µM (inactive)
[22]
  GI50: 2.67 µM (inactive)
[23]
  GI50: 1.68 µM (inactive)
[3]
  GI50: 12.7 µM (inactive)
[24]
  GI50: 17.6 µM (inactive)
[25]
  GI50: 0.417 µM (active)
[26]
  GI50: 5.21 µM (inactive)
[27]
  GI50: 2.86 µM (inactive)
[28]
  GI50: 3.24 µM (inactive)
[4]
  GI50: 3.02 µM (inactive)
[29]
  GI50: 2.09 µM (inactive)
[30]
  GI50: 2.92 µM (inactive)
[31]
  GI50: 3.1 µM (inactive)
[32]
  GI50: 18.7 µM (inactive)
[33]
  GI50: 5.73 µM (inactive)
[34]
  GI50: 2.51 µM (inactive)
[5]
  GI50: 5.14 µM (inactive)
[35]
  GI50: 3.86 µM (inactive)
[36]
  GI50: 15.6 µM (inactive)
[37]
  GI50: 17.5 µM (inactive)
[38]
  GI50: 4.89 µM (inactive)
[39]
  GI50: 3.14 µM (inactive)
[40]
  GI50: 17.1 µM (inactive)
[41]
  GI50: 13.8 µM (inactive)
[6]
  GI50: 4 µM (inactive)
[42]
  GI50: 10 µM (inactive)
[43]
  GI50: 8.95 µM (inactive)
[44]
  GI50: 2.21 µM (inactive)
[45]
  GI50: 2.74 µM (inactive)
[46]
  GI50: 18.8 µM (inactive)
[47]
  GI50: 3.5 µM (inactive)
[48]
  GI50: 9.1 µM (inactive)
[49]
  GI50: 10.9 µM (inactive)
